How the values were obtained:
[1] = test system: A549 cells transfected with mock shRNA; test: Anchorage-independent growth, mock shRNA cells; type: cell-based; details: Homo sapiens
Procedure: Tumor cells are suspended in basal medium Eagle (BME) medium and added to 0.6% agar, with different concentrations of Compound 1 in a base layer and a top layer of 0.3% agar. The cultures are maintained at 37° C. in a 5% CO2 incubator for 1 to 2 weeks and then colonies are counted under a microscope using the Image-Pro Plus software (v.4) program (Media Cybernetics, Silver Spring, Md.).
The effect of knocking down Aurora B expression in A549 cancer cells on the cell's sensitivity to Compound 1 was evaluated. […] Compound 1 (0.5 μM) inhibited anchorage-independent growth of A549 cells transfected with mock shRNA by about 90%.

AMPK-alpha1 = biological target: T1, AMPK-alpha1 (Homo sapiens, UniProt Q13131); test: Kinase profile assay (Millipore); type: biochemical; details: read-out: kinase activity compared with the control
T1 construct: purchased Millipore
Procedure: (§1) A kinase profile assay was performed by Millipore, to examine other potential targets of Compound 1. Only Akt2 activity was suppressed more than 50% after 5 μM compound 1 treatment, compared with the control (Table 2). In addition, the kinase activity of Aurora A was decreased less than 25% at 5 μM Compound 1.

AMPK-alpha2 = biological target: T2, AMPK-alpha2 (Homo sapiens, UniProt P54646); test: Kinase profile assay (Millipore); type: biochemical; details: read-out: kinase activity compared with the control
T2 construct: purchased Millipore
Procedure: as §1

Abl = biological target: T3, Abl (Homo sapiens, UniProt P00519); test: Kinase profile assay (Millipore); type: biochemical; details: read-out: kinase activity compared with the control
T3 construct: purchased Millipore
Procedure: as §1

Aurora A = biological target: T4, Aurora A (Homo sapiens, UniProt O14965); test: Kinase profile assay (Millipore); type: biochemical
T4 construct: purchased Millipore
T4 sequence (O14965 1-403): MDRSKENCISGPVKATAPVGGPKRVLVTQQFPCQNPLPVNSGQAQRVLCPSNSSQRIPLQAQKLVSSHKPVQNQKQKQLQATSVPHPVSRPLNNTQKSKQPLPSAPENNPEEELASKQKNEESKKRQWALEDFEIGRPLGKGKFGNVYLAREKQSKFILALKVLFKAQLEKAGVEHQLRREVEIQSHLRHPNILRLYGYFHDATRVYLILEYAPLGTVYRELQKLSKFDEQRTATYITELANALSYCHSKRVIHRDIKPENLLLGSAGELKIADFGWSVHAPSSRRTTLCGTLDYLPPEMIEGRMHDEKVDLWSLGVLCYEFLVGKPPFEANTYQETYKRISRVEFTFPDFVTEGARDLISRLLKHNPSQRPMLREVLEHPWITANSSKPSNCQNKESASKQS
Procedure: as §1

CDK1/cyclinB = biological target: T5, CDK1/cyclinB (Homo sapiens, UniProt P06493); test: Kinase profile assay (Millipore); type: biochemical; details: read-out: kinase activity compared with the control
T5 construct: purchased Millipore
Procedure: as §1

CDK2/cyclinA = biological target: T6, CDK2/cyclinA (Homo sapiens, UniProt P24941); test: Kinase profile assay (Millipore); type: biochemical; details: 5 μM
T6 construct: purchased Millipore
Procedure: as §1

CDK3/cyclinE = biological target: T7, CDK3/cyclinE (Homo sapiens, UniProt Q00526); test: Kinase profile assay (Millipore); type: biochemical; details: 5 μM
T7 construct: purchased Millipore
Procedure: as §1

CHK2 = biological target: T8, CHK2 (Homo sapiens, UniProt O96017); test: Kinase profile assay (Millipore); type: biochemical; details: read-out: kinase activity compared with the control
T8 construct: purchased Millipore
Procedure: as §1

DYRK2 = biological target: T9, DYRK2 (Homo sapiens, UniProt Q92630); test: Kinase profile assay (Millipore); type: biochemical; details: read-out: kinase activity compared with the control
T9 construct: purchased Millipore
Procedure: as §1

EGFR = biological target: T10, EGFR (Homo sapiens, UniProt P00533); test: Kinase profile assay (Millipore); type: biochemical; details: 5 μM
T10 construct: purchased Millipore
Procedure: as §1

EGFR (T790M, L858R) = biological target: T11, EGFR (T790M, L858R) (Homo sapiens, UniProt P00533, L858R/T790M); test: Kinase profile assay (Millipore); type: biochemical; details: 5 μM
T11 construct: purchased Millipore
Procedure: as §1

IGF-1R = biological target: T12, IGF-1R (Homo sapiens, UniProt P08069); test: Kinase profile assay (Millipore); type: biochemical; details: read-out: kinase activity compared with the control
T12 construct: purchased Millipore
Procedure: as §1

IKK beta = biological target: T13, IKK beta (Homo sapiens, UniProt O14920); test: Kinase profile assay (Millipore); type: biochemical; details: read-out: kinase activity compared with the control
T13 construct: purchased Millipore
Procedure: as §1

JNK1 alpha1 = biological target: T14, JNK1 alpha1 (Homo sapiens, UniProt P45983); test: Kinase profile assay (Millipore); type: biochemical; details: 5 μM
T14 construct: purchased Millipore
Procedure: as §1

JNK2 alpha2 = biological target: T15, JNK2 alpha2 (Homo sapiens, UniProt P45984); test: Kinase profile assay (Millipore); type: biochemical; details: 5 μM
T15 construct: purchased Millipore
Procedure: as §1

KDR = biological target: T16, KDR (Homo sapiens, UniProt P35968); test: Kinase profile assay (Millipore); type: biochemical; details: read-out: kinase activity compared with the control
T16 construct: purchased Millipore
Procedure: as §1

LKB1 = biological target: T17, LKB1 (Homo sapiens, UniProt Q15831); test: Kinase profile assay (Millipore); type: biochemical; details: read-out: kinase activity compared with the control
T17 construct: purchased Millipore
Procedure: as §1

MAPK1 = biological target: T18, MAPK1 (Homo sapiens, UniProt P27361); test: Kinase profile assay (Millipore); type: biochemical; details: read-out: kinase activity compared with the control
T18 construct: purchased Millipore
Procedure: as §1

MAPK2 = biological target: T19, MAPK2 (Homo sapiens, UniProt P28482); test: Kinase profile assay (Millipore); type: biochemical; details: read-out: kinase activity compared with the control
T19 construct: purchased Millipore
Procedure: as §1

MEK1 = biological target: T20, MEK1 (Homo sapiens, UniProt Q02750); test: Kinase profile assay (Millipore); type: biochemical; details: read-out: kinase activity compared with the control
T20 construct: purchased Millipore
Procedure: as §1

MKK4 = biological target: T21, MKK4 (Mus musculus, UniProt P47809); test: Kinase profile assay (Millipore); type: biochemical; details: read-out: kinase activity compared with the control
T21 construct: purchased Millipore
Procedure: as §1

MKK7 beta = biological target: T22, MKK7 beta (Homo sapiens, UniProt O14733); test: Kinase profile assay (Millipore); type: biochemical; details: 5 μM
T22 construct: purchased Millipore
Procedure: as §1

Met = biological target: T23, Met (Homo sapiens, UniProt P08581); test: Kinase profile assay (Millipore); type: biochemical; details: 5 μM
T23 construct: purchased Millipore
Procedure: as §1

PDK1 = biological target: T24, PDK1 (Homo sapiens, UniProt O15530); test: Kinase profile assay (Millipore); type: biochemical; details: read-out: kinase activity compared with the control
T24 construct: purchased Millipore
Procedure: as §1

PI3-K alpha = PI3-K alpha (Homo sapiens, UniProt P42336); test: Kinase profile assay (Millipore); type: biochemical; details: read-out: kinase activity compared with the control
Procedure: as §1

PKB beta (Akt2) = biological target: T25, PKB beta (Akt2) (Homo sapiens, UniProt P31751); test: Kinase profile assay (Millipore); type: biochemical
T25 construct: purchased Millipore
Procedure: as §1

RSK2 = biological target: T26, RSK2 (Homo sapiens, UniProt P51812); test: Kinase profile assay (Millipore); type: biochemical; details: read-out: kinase activity compared with the control
T26 construct: purchased Millipore
Procedure: as §1

c-Kit = biological target: T27, c-Kit (Homo sapiens, UniProt P10721); test: Kinase profile assay (Millipore); type: biochemical; details: read-out: kinase activity compared with the control
T27 construct: purchased Millipore
Procedure: as §1

c-RAF = biological target: T28, c-RAF (Homo sapiens, UniProt P04049); test: Kinase profile assay (Millipore); type: biochemical; details: read-out: kinase activity compared with the control
T28 construct: purchased Millipore
Procedure: as §1

c-Src = biological target: T29, c-Src (Homo sapiens, UniProt P12931); test: Kinase profile assay (Millipore); type: biochemical; details: read-out: kinase activity compared with the control
T29 construct: purchased Millipore
Procedure: as §1

mTOR/FKBP12 = biological target: T30, mTOR/FKBP12 (Homo sapiens, UniProt P42345); test: Kinase profile assay (Millipore); type: biochemical; details: read-out: kinase activity compared with the control
T30 construct: purchased Millipore
Procedure: as §1

T25 sequence (P31751 whole entry, species assumed): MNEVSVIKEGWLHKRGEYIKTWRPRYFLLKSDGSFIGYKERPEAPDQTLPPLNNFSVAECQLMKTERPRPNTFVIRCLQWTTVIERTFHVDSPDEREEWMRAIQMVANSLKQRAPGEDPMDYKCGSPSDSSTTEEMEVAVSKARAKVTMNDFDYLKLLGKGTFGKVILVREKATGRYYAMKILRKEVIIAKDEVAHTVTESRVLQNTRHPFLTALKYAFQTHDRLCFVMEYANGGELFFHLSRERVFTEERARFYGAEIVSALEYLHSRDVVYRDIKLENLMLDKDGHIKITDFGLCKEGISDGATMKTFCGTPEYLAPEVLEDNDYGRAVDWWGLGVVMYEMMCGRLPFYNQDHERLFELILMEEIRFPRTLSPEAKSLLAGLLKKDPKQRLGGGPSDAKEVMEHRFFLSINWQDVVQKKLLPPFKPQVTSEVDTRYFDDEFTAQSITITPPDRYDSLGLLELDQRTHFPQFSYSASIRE
Chain of PI3-K alpha (P42336 whole entry, species assumed): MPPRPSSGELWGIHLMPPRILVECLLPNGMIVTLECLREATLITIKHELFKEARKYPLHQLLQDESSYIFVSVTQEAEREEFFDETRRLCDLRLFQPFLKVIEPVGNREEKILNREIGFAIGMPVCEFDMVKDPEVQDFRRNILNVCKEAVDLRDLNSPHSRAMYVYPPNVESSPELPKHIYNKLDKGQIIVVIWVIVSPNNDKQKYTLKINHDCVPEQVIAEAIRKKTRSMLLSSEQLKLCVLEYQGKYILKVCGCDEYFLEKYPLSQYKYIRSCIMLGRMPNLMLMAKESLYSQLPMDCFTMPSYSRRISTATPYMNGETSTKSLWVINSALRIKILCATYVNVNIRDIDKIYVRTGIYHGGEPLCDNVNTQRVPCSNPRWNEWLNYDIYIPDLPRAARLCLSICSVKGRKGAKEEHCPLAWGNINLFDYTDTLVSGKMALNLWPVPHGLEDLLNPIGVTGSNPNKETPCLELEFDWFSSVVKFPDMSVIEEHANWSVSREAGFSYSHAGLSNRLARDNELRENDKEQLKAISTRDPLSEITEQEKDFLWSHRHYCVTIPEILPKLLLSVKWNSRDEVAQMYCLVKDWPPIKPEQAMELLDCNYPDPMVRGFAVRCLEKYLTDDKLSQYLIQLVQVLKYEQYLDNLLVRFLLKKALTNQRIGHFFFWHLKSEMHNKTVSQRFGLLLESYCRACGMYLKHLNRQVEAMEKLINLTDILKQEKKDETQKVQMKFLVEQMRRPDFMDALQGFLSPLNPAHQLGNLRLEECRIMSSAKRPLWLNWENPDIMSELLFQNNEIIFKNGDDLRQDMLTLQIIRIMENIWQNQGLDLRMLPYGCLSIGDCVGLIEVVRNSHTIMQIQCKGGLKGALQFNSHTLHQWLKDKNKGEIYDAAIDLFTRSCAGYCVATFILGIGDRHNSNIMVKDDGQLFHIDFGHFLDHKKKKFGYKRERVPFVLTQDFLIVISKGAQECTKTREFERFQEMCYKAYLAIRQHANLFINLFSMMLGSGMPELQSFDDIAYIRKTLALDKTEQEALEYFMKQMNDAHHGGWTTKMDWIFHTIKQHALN
Chain of PI3-K alpha (P27986 whole entry partner, species assumed): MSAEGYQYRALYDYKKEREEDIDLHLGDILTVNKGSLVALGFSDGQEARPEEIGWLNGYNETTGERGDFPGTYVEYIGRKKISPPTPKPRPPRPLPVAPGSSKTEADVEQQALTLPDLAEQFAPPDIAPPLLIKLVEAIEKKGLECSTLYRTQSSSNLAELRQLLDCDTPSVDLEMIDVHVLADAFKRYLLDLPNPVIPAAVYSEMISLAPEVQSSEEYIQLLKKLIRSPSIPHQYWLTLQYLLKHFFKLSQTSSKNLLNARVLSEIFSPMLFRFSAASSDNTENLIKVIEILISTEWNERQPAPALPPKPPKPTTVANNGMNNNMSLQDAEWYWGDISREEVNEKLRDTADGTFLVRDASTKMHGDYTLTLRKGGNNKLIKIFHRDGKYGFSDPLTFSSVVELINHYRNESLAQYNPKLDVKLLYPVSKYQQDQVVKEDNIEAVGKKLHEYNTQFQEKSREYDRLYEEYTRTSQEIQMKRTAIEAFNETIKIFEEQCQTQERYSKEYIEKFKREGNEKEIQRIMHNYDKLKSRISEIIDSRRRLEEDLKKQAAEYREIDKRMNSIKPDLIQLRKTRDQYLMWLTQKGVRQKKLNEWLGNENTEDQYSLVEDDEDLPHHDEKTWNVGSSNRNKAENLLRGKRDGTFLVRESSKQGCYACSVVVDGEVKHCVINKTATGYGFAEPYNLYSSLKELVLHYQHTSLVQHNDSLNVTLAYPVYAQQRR
T13 sequence (O14920 whole entry, species assumed): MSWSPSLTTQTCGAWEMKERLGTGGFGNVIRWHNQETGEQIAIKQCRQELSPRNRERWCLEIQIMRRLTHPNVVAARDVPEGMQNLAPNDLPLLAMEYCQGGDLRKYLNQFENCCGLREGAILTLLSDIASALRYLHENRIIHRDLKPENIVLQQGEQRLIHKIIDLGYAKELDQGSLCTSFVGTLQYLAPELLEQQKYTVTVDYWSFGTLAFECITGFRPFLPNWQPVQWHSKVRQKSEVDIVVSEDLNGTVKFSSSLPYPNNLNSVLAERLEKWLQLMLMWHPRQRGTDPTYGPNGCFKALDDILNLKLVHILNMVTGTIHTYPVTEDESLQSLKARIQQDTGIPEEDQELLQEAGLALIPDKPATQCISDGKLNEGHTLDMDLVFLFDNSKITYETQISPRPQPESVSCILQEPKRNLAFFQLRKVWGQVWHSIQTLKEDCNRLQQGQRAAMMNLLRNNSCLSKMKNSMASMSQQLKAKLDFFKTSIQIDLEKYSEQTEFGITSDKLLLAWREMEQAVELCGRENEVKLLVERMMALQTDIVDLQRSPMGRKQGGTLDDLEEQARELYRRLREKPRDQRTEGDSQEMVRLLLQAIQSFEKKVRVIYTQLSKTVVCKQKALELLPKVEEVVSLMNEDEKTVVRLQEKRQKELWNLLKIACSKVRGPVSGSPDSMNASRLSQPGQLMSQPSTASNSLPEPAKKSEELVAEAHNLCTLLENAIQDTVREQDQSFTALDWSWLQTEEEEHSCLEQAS
T18 sequence (P27361 whole entry): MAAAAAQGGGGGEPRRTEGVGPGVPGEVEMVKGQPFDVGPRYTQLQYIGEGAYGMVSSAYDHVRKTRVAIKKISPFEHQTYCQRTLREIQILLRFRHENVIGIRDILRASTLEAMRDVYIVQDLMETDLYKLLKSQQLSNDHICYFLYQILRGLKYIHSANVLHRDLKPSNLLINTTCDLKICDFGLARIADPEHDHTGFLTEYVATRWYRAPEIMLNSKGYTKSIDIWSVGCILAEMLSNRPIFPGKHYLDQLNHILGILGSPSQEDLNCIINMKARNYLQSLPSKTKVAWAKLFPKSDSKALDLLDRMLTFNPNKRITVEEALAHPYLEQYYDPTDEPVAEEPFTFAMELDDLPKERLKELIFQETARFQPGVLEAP
T30 sequence (P42345 1362-2549 limits assumed, species assumed): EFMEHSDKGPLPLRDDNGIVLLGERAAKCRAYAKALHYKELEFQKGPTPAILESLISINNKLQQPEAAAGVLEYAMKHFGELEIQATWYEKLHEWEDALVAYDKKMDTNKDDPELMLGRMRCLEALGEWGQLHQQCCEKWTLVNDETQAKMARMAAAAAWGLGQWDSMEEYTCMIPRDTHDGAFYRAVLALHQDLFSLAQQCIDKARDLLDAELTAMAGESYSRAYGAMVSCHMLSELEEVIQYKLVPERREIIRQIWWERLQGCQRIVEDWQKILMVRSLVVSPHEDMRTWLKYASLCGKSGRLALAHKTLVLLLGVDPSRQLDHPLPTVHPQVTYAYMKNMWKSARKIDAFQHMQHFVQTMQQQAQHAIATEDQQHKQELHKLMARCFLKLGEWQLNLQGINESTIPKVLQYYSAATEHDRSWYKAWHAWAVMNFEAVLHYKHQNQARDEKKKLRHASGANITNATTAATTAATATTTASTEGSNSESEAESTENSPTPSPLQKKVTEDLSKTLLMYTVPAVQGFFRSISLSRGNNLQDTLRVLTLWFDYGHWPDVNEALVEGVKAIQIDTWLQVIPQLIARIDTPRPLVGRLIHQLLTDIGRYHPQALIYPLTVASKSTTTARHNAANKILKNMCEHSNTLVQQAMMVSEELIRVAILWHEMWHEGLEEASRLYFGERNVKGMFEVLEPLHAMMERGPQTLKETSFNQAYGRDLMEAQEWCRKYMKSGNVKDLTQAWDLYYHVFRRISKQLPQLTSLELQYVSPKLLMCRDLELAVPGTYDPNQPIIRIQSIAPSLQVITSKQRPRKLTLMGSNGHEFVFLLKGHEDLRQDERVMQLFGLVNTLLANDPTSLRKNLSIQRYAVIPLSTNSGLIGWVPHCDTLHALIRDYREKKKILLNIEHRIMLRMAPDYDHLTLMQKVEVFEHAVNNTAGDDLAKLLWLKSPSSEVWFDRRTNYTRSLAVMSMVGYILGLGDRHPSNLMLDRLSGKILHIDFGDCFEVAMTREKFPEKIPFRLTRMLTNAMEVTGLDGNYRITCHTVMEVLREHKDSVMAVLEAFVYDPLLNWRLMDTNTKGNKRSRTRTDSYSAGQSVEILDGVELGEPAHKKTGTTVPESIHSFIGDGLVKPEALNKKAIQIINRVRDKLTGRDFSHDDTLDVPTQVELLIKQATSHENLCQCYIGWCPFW
T19 sequence (P28482 whole entry): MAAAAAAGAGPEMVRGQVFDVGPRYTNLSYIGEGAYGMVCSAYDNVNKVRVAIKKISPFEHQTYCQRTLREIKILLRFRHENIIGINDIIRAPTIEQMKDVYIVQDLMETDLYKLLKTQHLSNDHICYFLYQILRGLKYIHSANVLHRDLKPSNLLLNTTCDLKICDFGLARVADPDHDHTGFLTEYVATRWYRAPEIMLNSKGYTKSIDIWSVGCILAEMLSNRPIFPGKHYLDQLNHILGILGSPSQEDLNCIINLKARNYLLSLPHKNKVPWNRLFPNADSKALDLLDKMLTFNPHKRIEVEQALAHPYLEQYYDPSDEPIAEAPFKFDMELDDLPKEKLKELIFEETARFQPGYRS

O=C(/C=C/c1ccc2c(c1)OCO2)/C=C1/C(=O)Nc2ccccc21 [Compound 1]
inhibition at 0.5 µM [1]: ~90% | remaining activity at 5 µM (AMPK-alpha1): 96% | remaining activity at 5 µM (AMPK-alpha2): 90% | remaining activity at 5 µM (Abl): 109% | kinase activity of Aurora A decreased (kinase profile) (Aurora A; 5 μM): less than 25% | remaining activity at 5 µM (Aurora A; Aurora A, read-out: kinase activity compared with the control): 76% | remaining activity at 5 µM (CDK1/cyclinB): 86% | kinase activity compared with the control (CDK2/cyclinA): 98 | kinase activity compared with the control (CDK3/cyclinE): 99 | remaining activity at 5 µM (CHK2): 75% | remaining activity at 5 µM (DYRK2): 97% | kinase activity compared with the control (EGFR): 106 | kinase activity compared with the control (EGFR (T790M, L858R)): 101 | remaining activity at 5 µM (IGF-1R): 105% | remaining activity at 5 µM (IKK beta): 68% | kinase activity compared with the control (JNK1 alpha1): 104 | kinase activity compared with the control (JNK2 alpha2): 89 | remaining activity at 5 µM (KDR): 93% | remaining activity at 5 µM (LKB1): 87% | remaining activity at 5 µM (MAPK1): 100% | remaining activity at 5 µM (MAPK2): 102% | remaining activity at 5 µM (MEK1): 104% | remaining activity at 5 µM (MKK4): 130% | kinase activity compared with the control (MKK7 beta): 94 | kinase activity compared with the control (Met): 89 | remaining activity at 5 µM (PDK1): 96% | remaining activity at 5 µM (PI3-K alpha): 102% | Akt2 activity suppressed compared with the control (kinase profile) (PKB beta (Akt2); 5 μM): more than 50% | remaining activity at 5 µM (PKB beta (Akt2); PKB beta (Akt2), read-out: kinase activity compared with the control): 47% | remaining activity at 5 µM (RSK2): 94% | remaining activity at 5 µM (c-Kit): 123% | remaining activity at 5 µM (c-RAF): 87% | remaining activity at 5 µM (c-Src): 99% | remaining activity at 5 µM (mTOR/FKBP12): 86%
